Read-outs that look alike come from different tables or passages of the source.
Assays:
Assay in all cases: KinomeScan kinase panel, single concentration 10 µM
Assay type in all cases: binding
KinomeScan kinase panel [1] = biological target: T1, KinomeScan kinase panel (Homo sapiens, UniProt O00329); details: PIK3CD, 10 µM; read-out: score (%)
T1 construct: purchased DiscoveRx (KinomeScan)
T1 sequence (O00329 1-1044): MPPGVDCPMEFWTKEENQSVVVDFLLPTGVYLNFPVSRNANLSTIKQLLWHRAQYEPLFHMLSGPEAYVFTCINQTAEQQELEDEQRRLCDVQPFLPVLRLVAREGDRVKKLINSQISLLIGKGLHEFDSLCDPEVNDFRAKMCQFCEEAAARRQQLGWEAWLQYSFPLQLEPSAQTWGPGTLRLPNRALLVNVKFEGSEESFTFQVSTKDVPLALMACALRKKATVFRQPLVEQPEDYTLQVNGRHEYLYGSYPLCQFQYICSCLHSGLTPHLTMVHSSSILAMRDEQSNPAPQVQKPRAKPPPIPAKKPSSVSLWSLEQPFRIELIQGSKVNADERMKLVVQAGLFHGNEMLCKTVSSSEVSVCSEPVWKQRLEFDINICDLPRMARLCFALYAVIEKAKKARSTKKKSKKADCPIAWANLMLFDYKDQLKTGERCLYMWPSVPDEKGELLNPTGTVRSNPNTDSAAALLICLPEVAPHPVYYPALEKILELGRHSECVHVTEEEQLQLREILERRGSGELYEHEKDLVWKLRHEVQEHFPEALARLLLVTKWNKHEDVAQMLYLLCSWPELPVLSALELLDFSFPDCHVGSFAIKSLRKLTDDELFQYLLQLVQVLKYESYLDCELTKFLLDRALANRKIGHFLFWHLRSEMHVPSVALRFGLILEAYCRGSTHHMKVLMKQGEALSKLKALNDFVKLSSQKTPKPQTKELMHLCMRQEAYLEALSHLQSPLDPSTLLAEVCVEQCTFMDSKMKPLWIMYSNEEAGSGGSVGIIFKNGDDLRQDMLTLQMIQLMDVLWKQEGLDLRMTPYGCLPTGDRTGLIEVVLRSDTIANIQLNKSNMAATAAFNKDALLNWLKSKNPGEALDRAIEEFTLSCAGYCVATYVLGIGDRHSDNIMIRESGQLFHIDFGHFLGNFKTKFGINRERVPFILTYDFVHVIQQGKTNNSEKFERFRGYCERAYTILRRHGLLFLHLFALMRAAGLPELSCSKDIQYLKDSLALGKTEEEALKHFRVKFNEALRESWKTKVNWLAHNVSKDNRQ

KinomeScan kinase panel [2] = biological target: T2, KinomeScan kinase panel (Homo sapiens, UniProt P19525); details: 10 µM
T2 construct: purchased DiscoveRx (KinomeScan)
T2 sequence (P19525 whole entry): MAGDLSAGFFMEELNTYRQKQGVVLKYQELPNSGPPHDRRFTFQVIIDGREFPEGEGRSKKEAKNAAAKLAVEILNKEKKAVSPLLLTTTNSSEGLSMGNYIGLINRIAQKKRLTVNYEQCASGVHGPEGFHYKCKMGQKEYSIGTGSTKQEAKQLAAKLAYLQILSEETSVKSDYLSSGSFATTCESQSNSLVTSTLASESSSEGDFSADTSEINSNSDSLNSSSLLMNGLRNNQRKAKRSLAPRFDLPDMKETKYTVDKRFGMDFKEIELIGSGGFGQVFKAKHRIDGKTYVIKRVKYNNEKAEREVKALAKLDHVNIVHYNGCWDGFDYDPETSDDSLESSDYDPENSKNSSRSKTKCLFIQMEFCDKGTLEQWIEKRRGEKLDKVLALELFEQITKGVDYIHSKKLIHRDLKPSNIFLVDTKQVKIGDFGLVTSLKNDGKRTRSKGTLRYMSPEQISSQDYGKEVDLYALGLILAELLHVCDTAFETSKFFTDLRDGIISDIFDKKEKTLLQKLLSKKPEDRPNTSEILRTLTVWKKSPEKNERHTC

KinomeScan kinase panel [3] = biological target: T3, KinomeScan kinase panel (Homo sapiens, UniProt P31152); details: ERK4, 10 µM; read-out: score (%)
T3 construct: purchased DiscoveRx (KinomeScan)
T3 sequence (P31152 whole entry): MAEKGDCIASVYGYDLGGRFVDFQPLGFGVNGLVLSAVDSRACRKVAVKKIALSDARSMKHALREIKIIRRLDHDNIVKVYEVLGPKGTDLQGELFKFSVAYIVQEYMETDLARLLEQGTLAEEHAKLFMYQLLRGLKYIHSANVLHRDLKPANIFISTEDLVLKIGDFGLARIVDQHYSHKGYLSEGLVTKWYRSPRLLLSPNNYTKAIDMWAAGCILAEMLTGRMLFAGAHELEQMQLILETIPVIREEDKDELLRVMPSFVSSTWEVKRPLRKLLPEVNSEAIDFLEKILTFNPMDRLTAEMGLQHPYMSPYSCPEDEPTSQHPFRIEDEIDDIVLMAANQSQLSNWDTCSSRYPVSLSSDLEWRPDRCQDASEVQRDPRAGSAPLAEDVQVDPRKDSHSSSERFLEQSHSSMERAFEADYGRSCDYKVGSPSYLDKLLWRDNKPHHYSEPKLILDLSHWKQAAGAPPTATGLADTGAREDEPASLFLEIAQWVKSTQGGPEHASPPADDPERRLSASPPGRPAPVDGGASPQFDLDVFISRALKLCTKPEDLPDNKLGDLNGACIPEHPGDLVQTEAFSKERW

KinomeScan kinase panel [4] = biological target: T4, KinomeScan kinase panel (Homo sapiens, UniProt P45985); details: MEK4, 10 µM; read-out: score (%)
T4 construct: purchased DiscoveRx (KinomeScan)
T4 sequence (P45985 1-399): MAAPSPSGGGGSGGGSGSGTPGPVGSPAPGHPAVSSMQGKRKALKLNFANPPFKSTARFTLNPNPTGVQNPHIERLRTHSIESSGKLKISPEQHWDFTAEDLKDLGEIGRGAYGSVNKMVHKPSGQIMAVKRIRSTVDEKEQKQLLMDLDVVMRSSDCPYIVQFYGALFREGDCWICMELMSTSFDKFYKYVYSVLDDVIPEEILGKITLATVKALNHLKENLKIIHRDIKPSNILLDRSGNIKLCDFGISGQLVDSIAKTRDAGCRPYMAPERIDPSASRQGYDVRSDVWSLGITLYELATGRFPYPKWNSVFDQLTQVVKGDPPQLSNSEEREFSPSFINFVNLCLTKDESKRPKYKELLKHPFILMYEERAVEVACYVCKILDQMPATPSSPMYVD

KinomeScan kinase panel [5] = biological target: T5, KinomeScan kinase panel (Homo sapiens, UniProt P68400); details: CSNK2A1, 10 µM; read-out: score (%)
T5 construct: purchased DiscoveRx (KinomeScan)
T5 sequence (P68400 whole entry): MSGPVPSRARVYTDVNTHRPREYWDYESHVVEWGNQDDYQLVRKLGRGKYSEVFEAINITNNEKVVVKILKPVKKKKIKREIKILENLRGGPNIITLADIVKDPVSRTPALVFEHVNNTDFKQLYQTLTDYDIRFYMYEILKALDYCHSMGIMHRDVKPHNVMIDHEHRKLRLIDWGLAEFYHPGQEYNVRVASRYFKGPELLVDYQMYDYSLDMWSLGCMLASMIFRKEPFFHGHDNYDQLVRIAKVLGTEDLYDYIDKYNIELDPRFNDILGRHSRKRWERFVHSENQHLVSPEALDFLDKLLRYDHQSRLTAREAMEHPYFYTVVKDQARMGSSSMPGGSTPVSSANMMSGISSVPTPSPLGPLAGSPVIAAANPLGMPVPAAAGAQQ

KinomeScan kinase panel [6] = biological target: T6, KinomeScan kinase panel (Homo sapiens, UniProt Q05655); details: 10 µM, read-out: score (%)
T6 construct: purchased DiscoveRx (KinomeScan)
T6 sequence (Q05655 whole entry): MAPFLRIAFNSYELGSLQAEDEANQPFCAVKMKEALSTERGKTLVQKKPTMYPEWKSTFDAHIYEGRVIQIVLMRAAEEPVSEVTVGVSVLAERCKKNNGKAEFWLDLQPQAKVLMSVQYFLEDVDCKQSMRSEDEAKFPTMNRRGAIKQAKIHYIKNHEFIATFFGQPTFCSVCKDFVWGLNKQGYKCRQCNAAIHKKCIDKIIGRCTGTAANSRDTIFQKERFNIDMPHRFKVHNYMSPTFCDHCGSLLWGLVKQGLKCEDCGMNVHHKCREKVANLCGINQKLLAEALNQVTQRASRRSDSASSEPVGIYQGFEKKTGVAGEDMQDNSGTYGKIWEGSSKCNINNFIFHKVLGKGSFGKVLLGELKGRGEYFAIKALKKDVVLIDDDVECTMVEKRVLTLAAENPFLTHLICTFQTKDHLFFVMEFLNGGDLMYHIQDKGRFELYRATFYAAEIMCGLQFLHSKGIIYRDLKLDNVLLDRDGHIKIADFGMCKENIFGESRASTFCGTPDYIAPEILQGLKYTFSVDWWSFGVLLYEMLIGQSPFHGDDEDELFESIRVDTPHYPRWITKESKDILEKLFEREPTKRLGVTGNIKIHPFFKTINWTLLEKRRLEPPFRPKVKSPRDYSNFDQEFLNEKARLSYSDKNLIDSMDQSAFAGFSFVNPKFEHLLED

KinomeScan kinase panel [7] = biological target: T7, KinomeScan kinase panel (Homo sapiens, UniProt Q2M2I8); details: AAK1, 10 µM; read-out: score (%)
T7 construct: purchased DiscoveRx (KinomeScan)
T7 sequence (Q2M2I8 whole entry): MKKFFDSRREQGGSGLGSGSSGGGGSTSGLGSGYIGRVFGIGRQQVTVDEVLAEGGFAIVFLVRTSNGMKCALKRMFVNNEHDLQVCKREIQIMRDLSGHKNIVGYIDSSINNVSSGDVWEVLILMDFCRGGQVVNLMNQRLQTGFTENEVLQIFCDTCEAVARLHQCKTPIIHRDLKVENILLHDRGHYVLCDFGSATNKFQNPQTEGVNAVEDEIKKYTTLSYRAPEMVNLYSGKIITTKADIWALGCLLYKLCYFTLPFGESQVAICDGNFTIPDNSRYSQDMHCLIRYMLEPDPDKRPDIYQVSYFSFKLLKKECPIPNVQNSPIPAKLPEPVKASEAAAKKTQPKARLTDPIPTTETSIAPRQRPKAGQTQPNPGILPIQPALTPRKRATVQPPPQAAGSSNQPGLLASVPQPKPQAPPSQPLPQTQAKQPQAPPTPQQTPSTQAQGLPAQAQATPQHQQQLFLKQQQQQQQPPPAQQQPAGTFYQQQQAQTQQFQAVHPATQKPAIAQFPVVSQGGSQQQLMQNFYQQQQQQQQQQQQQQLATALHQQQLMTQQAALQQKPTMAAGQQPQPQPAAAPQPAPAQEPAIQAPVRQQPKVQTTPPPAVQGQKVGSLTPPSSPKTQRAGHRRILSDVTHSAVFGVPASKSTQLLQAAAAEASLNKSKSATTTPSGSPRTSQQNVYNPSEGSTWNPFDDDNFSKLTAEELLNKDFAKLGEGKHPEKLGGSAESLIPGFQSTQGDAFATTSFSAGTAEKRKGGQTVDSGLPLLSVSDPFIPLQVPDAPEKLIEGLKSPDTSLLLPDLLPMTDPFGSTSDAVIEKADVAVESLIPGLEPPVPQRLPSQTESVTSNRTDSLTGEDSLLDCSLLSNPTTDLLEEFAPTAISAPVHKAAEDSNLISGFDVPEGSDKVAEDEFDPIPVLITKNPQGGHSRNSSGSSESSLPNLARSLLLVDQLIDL

KinomeScan kinase panel [8] = biological target: T8, KinomeScan kinase panel (Homo sapiens, UniProt Q9NRM7); details: LATS2, 10 µM
T8 construct: purchased DiscoveRx (KinomeScan)
T8 sequence (Q9NRM7 1-1088): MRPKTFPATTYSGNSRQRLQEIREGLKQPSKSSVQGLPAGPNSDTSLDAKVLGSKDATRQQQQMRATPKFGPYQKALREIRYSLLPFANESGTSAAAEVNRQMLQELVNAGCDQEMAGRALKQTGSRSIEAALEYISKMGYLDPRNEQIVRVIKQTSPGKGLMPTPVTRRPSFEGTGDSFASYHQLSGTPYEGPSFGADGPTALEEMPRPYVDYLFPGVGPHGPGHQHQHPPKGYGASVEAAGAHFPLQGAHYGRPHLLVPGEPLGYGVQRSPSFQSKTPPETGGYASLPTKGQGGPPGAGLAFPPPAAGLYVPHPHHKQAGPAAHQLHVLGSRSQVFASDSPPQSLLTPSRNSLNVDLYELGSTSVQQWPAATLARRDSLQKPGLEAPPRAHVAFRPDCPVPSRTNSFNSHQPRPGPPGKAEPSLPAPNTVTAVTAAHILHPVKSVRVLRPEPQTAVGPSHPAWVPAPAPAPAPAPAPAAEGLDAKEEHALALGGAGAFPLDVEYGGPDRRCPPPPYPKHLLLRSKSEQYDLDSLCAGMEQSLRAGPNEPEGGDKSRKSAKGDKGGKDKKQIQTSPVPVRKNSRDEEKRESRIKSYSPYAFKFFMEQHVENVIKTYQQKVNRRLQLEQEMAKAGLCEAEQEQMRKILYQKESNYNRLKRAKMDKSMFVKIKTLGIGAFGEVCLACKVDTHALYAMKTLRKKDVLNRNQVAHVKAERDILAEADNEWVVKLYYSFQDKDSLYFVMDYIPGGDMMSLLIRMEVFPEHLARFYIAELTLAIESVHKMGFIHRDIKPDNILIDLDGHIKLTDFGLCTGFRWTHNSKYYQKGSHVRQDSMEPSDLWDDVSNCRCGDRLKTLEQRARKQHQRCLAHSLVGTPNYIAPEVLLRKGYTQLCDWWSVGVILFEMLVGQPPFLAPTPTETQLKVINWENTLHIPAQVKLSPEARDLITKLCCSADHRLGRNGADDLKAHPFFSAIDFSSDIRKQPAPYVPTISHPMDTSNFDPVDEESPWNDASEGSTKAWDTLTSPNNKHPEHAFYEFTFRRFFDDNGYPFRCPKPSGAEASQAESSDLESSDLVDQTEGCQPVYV

Row | SMILES | remaining binding at 10 µM (KinomeScan kinase panel [1]) | score (%) (KinomeScan kinase panel [2]; kinase PRKR) | remaining binding at 10 µM (KinomeScan kinase panel [3]) | remaining binding at 10 µM (KinomeScan kinase panel [4]) | remaining binding at 10 µM (KinomeScan kinase panel [5]) | remaining binding at 10 µM (KinomeScan kinase panel [6]; kinase PRKCD) | remaining binding at 10 µM (KinomeScan kinase panel [7]) | score (%) (KinomeScan kinase panel [8]) | score (%) (KinomeScan kinase panel [2]; PRKR) | remaining binding at 10 µM (KinomeScan kinase panel [6]; PRKCD)
1 | CCN1CCN(Cc2ccc(NC(=O)c3ccc(C)c(C#Cc4cccnc4)c3)cc2C(F)(F)F)CC1 [XMD15-44] | 76% | 66% | > 30% | > 30% | > 30% | 39% | > 30% | 7.6% |  | 
2 | CCN1CCN(Cc2ccc(NC(=O)c3ccc(C)c(/C=C/c4cnc5[nH]ccc5c4Cl)c3)cc2C(F)(F)F)CC1 [HG-6-63-01, (E)-3-(2-(4-chloro-1H-pyrrolo[2,3-b]pyridin-5-yl)vinyl)-N-(4-((4-ethylpiperazin-1-yl)methyl)-3-(trifluoromethyl)phenyl)-4-methylbenzamide] | > 30% |  | > 30% | > 30% | 15% |  | 27% | nb (Hits values higher than 30% were considered negative (no binding: nb)) | nb (Hits values higher than 30% were considered negative (no binding: nb)) | > 30%
3 | CCN1CCN(Cc2ccc(NC(=O)c3ccc(C)c(NC(=O)c4cncc(-c5cccs5)c4)c3)cc2C(F)(F)F)CC1 [ALW-II-41-27] | > 30% |  | > 30% | > 30% | > 30% |  | > 30% | nb (Hits values higher than 30% were considered negative (no binding: nb)) | nb (Hits values higher than 30% were considered negative (no binding: nb)) | 1.2%

Reference: PMC4457528, “Identification of Novel Small Molecule Inhibitors of Oncogenic RET Kinase” (PLoS ONE, 2015)
